This note sets out measurements from patent publication US8916599B2, “1H-benz imidazole-5-carboxamides as anti-inflammatory agents” (Orexo AB, priority 2008, dated 2014).

In the first experiment the target is T1, recombinant human mPGES-1 (Homo sapiens, UniProt O14684).
T1 construct: made in house; host or cells: Rosetta E. coli (microsomal/membrane fraction)
T1 sequence (O14684 1-152): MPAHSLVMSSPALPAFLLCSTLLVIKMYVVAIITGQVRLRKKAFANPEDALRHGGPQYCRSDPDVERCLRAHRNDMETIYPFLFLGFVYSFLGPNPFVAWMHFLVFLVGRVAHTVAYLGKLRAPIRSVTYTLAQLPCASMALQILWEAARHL
Description: mPGES-1 inhibition test (microsomes, PGH2 substrate, HTRF detection of PGE2). In kind it is biochemical. The settings on record: inhibition of mPGES-1 at 1 μM (marked in cell). The gist of the method: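 Microsomes from E. coli expressing recombinant human mPGES-1 in 0.1 M KPi pH 7.4 with 2.5 mM GSH were preincubated with inhibitor 25 min at room temperature. PGH2 was then added, and the reaction was stopped after 1 min with acidified FeCl2. PGE2 was quantified by HTRF (665/620 nm ratio) against a synthetic PGE2 standard curve.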
In general terms: Time-resolved FRET reads energy transfer from a long-lived donor to a nearby acceptor.
What is called inhibition is the share of the control response that was lost under treatment. Consider `O=C(Nc1ccc(Cl)c(C(F)(F)F)c1)c1ccc2[nH]c(Nc3c(Cl)cccc3Cl)nc2c1` [Example 282, 2-(2,6-Dichloro-phenylamino)-1H-benzimidazole-5-carboxylic acid (4-chloro-3-trifluoromethyl-phenyl)-amide], for which the inhibition at 1 µM was 100%.

The same experiment, now with this note: inhibition of mPGES-1 at 10 μM.
In the case of `CO[C@H]1CC[C@H](NC(=O)c2ccc3c(c2)nc(Nc2c(Cl)cccc2Cl)n3C)CC1` [Example 240, 2-(2,6-Dichloro-phenylamino)-1-methyl-1H-benzimidazole-5-carboxylic acid (trans-4-methoxy-cyclohexyl)-amide], the inhibition at 10 µM amounted to 80%.

Consider `Cn1c(Nc2c(Cl)cccc2Cl)nc2cc(C(=O)NCC3CCCC3)ccc21` [Example 243, 2-(2,6-Dichloro-phenylamino)-1-methyl-1H-benzimidazole-5-carboxylic acid cyclopentylmethyl-amide], for which the inhibition at 10 µM amounted to 93%.

For `Cn1c(Nc2c(Cl)cc(F)cc2Cl)nc2cc(C(=O)NC3CCC(C)(C)CC3)ccc21` [Example 420, 2-(2,6-Dichloro-4-fluorophenylamino)-N-(4,4-dimethylcyclohexyl)-1-methyl-1H-benzimidazole-5-carboxamide], the inhibition at 10 µM is 100%. The same measure, in the same setting: next, `COc1cc2[nH]c(Nc3c(Cl)cccc3Cl)nc2cc1C(=O)Nc1ccc(C(F)(F)F)cn1` [Example 633, 2-(2,6-Dichlorophenylamino)-N-(5-trifluoromethyl-pyridin-2-yl)-6-methoxy-1H-benzimidazole-5-carboxamide]: 99%; `CC(C)(C)[C@H]1CC[C@@H](NC(=O)c2cc3nc(Nc4c(F)cccc4Cl)[nH]c3cc2F)CC1` [Example 378, N-((1s,4s)-4-tert.-Butylcyclohexyl)-2-(2-chloro-6-fluorophenylamino)-6-fluoro-1H-benzimidazole-5-carboxamide]: 100%. The same measure, in the same setting: next, `Cn1c(Nc2c(Cl)cccc2Cl)nc2cc(C(=O)NC3CCCC(C(F)(F)F)C3)ccc21` (centres unmarked) [Example 255, 2-(2,6-Dichloro-phenylamino)-1-methyl-1H-benzimidazole-5-carboxylic acid (3-trifluoromethyl-cyclohexyl)-amide]: 100%; `Cc1cc(NC(=O)c2ccc3[nH]c(Nc4c(Cl)cccc4Cl)nc3c2)ncc1Cl` [Example 89, 2-(2,6-Dichloro-phenylamino)-1H-benzimidazol-5-carboxylic acid (5-chloro-4-methyl-pyridin-2-yl)-amide]: 97%; `Cc1cc(NC(=O)c2ccc3[nH]c(Nc4c(Cl)cccc4Cl)nc3c2)ncc1F` [Example 189, 2-(2,6-Dichloro-phenylamino)-1H-benzimidazole-5-carboxylic acid (5-fluoro-4-methyl-pyridin-2-yl)-amide]: 94%. Same read-out and setting: the value for `Cc1cc(NC(=O)c2cc3nc(Nc4c(Cl)cc(F)cc4Cl)[nH]c3cc2OCC(F)(F)F)nc(C(F)(F)F)c1` [compound 576] was 96%. With `COc1cc2[nH]c(Nc3c(Cl)ccc(CC#N)c3Cl)nc2cc1C(=O)Nc1ccc(Br)cc1` [Example 639, 2-(2,6-Dichloro-3-cyanomethyl-phenylamino)-N-(4-bromphenyl)-6-methoxy-1H-benzimidazol-5-carboxamide], the inhibition at 10 µM came to 99%. Turning to `Cn1c(Nc2c(Cl)cccc2Cl)nc2cc(C(=O)NC3CCOCC3)ccc21` [Example 252, 2-(2,6-Dichloro-phenylamino)-1-methyl-1H-benzimidazole-5-carboxylic acid (tetrahydro-pyran-4-yl)-amide], the inhibition at 10 µM was 68%. Turning to `Cn1c(Nc2ccc(C(N)=O)cc2Cl)nc2cc(C(=O)Nc3ccc(Br)cc3)ccc21` [Example 543, N-(4-Bromophenyl)-2-(4-carbamoyl-2-chlorophenylamino)-1-methyl-1H-benzimidazole-5-carboxamide], the inhibition at 10 µM was 91%. Same read-out and setting: next, `O=C(NC1CCC2(CC1)CC2)c1cc2nc(Nc3c(Cl)cccc3Cl)[nH]c2cc1F` [Example 387, 2-(2,6-Dichlorophenylamino)-6-fluoro-N-(spiro[2.5]octan-6-yl)-1H-benzimidazole-5-carboxamide]: 100%. The same measure, in the same setting: the value for `Cc1c[n+]([O-])c(NC(=O)c2ccc3nc(Nc4c(Cl)cccc4Cl)[nH]c3c2)cc1Cl` [Example 418, 4-Chloro-2-(2-(2,6-dichlorophenylamino)-1H-benzimidazole-6-carboxamido)-5-methylpyridine 1-oxide] was 100%. Regarding `COc1cc2c(cc1C(=O)NCc1ncccc1Cl)nc(Nc1c(Cl)cccc1Cl)n2C` [Example 631], the inhibition at 10 µM stood at 100%. Consider `Cn1c(Nc2c(Cl)cccc2Cl)nc2cc(C(=O)NCc3cccc(C(F)(F)F)n3)ccc21` [Example 247, 2-(2,6-Dichloro-phenylamino)-1-methyl-1H-benzimidazole-5-carboxylic acid (6-trifluoromethyl-pyridin-2-ylmethyl)-amide], for which the inhibition at 10 µM amounted to 92%. On the same count and under the same terms, next, `CCCCCCCCNC(=O)c1cc2nc(Nc3c(Cl)cccc3Cl)n(C)c2cc1F` [Example 166, 2-(2,6-Dichloro-phenylamino)-6-fluoro-1-methyl-1H-benzimidazole-5-carboxylic acid octylamide]: 100%; `Cc1cc(C)nc(NC(=O)c2ccc3c(c2)nc(Nc2c(Cl)cccc2Cl)n3C)c1` [Example 201, 2-(2,6-Dichloro-phenylamino)-1-methyl-1H-benzimidazole-5-carboxylic acid (4,6-dimethyl-pyridin-2-yl)-amide]: 100%. Still for that read-out and setting: next, `O=C(Nc1cc(Cl)c(Cl)c(Cl)c1)c1ccc2[nH]c(Nc3c(Cl)cccc3Cl)nc2c1` [Example 287, 2-(2,6-Dichloro-phenylamino)-1H-benzimidazole-5-carboxylic acid (3,4,5-trichloro-phenyl)-amide]: 92%; `Cc1cccc(Cl)c1Nc1nc2cc(C(=O)Nc3ccc(Br)cc3)ccc2n1C` [Example 382, N-(4-Bromophenyl)-2-(2-chloro-6-methylphenylamino)-1-methyl-1H-benzimidazole-5-carboxamide]: 100%. Still for that read-out and setting: next, `Cn1c(Nc2c(F)cccc2Cl)nc2cc(C(=O)NC3CCC4(CC3)CC4)ccc21` [Example 441, 2-(2-Chloro-6-fluorophenylamino)-1-methyl-N-(spiro[2.5]octan-6-yl)-1H-benzimidazole-5-carboxamide]: 97%. Turning to `O=C(NC1Cc2ccccc2C1)c1cc2nc(Nc3c(Cl)cccc3Cl)[nH]c2cc1F` [Example 125, 2-(2,6-Dichloro-phenylamino)-6-fluoro-1H-benzimidazol-5-carboxylic acid indan-2-yl-amide], the inhibition at 10 µM worked out at 100%.

On to `CC(NC(=O)c1ccc2c(c1)nc(Nc1c(Cl)cccc1Cl)n2C)c1ccccn1` (centres unmarked) [Example 242], for which the inhibition at 10 µM stood at 70%. Same read-out and setting: the value for `Cn1c(Nc2c(Cl)cccc2Cl)nc2cc(C(=O)NCC3CCCOC3)ccc21` (centres unmarked) [Example 251, 2-(2,6-Dichloro-phenylamino)-1-methyl-1H-benzimidazole-5-carboxylic acid (tetrahydro-pyran-3-ylmethyl)-amide] was 71%; that for `CN(C)c1cccnc1CNC(=O)c1cc2nc(Nc3c(Cl)cccc3Cl)n(C)c2cc1F` [Example 474, 2-(2,6-Dichlorophenylamino)-N-((3-dimethylamino-pyridin-2-yl)-methyl)-6-fluoro-1-methyl-1H-benzimidazole-5-carboxamide] was 100%.
